Results published in ChEMBL document CHEMBL1201862, “PubChem BioAssay data set” (2004).
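Grown in 96-well plates, cells were treated for 48 hours with each compound at five concentrations. Insufficient inhibition: endpoint recorded as highest concentration tested. The concentration for 50% growth inhibition is given as GI50.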 Activity calls are given as the source filed them. Cut-off read from the data, not from the text of the source: active = GI50 up to about 1.1 µM and inactive = higher. Where a SMILES comes first, the peptide text is derived from it. [ ]: non-standard residue; d: D form. The star is where a group is joined. ξ: configuration not given here. NMeF = CN[CH](Cc1ccccc1)C(=O)O; ξNMe2Val = CC(C)C(C(=O)*)N(C)C; NMeV = CN[CH](C(=O)O)C(C)C; OtBu = CC(C)(C)O*

Columns and labels:
Experiment in all cases: growth of human tumour cells (NCI), 48 h
[1] = tested on: OVCAR-3
[2] = tested on: EKVX
[3] = tested on: U-251
[4] = tested on: HCT-15
[5] = tested on: K562
[6] = tested on: NCI-H23
[7] = tested on: SK-OV-3
[8] = tested on: COLO 205
[9] = tested on: UACC-62
[10] = tested on: SW-620
[11] = tested on: SNB-19
[12] = tested on: TK-10
[13] = tested on: M14
[14] = tested on: HOP-62
[15] = tested on: NCI-H460
[16] = tested on: A498

Compound	GI50 [1]	GI50 [2]	GI50 [3]	GI50 [4] [µM]	GI50 [5]	GI50 [6]	GI50 [7]	GI50 [8]	GI50 [9]	GI50 [10]	GI50 [11]	GI50 [12]	GI50 [13]	GI50 [14]	GI50 [15]	GI50 [16]
NCCCSCC(=O)O	> 100 µM (inactive)	> 100 µM (inactive)	> 100 µM (inactive)	> 100	> 100 µM (inactive)	> 100 µM (inactive)	> 100 µM (inactive)	> 100 µM (inactive)	> 100 µM (inactive)	> 100 µM (inactive)	> 100 µM (inactive)	> 100 µM (inactive)				
CC1=CC2CCC1(C)C/C2=C(/C)OC=O (stereo not given)	> 100 µM (inactive)	> 100 µM (inactive)	> 100 µM (inactive)	> 100	> 100 µM (inactive)	> 100 µM (inactive)	> 100 µM (inactive)	> 100 µM (inactive)	> 100 µM (inactive)	> 100 µM (inactive)	> 100 µM (inactive)	> 100 µM (inactive)	> 100 µM (inactive)	> 100 µM (inactive)	> 100 µM (inactive)	
O=c1cc(-c2ccccc2)oc2cc(OCCCCCCCCCCOc3ccc4c(=O)cc(-c5ccccc5)oc4c3)ccc12	> 100 µM (inactive)	> 100 µM (inactive)	> 100 µM (inactive)	> 100	> 100 µM (inactive)	> 100 µM (inactive)	> 100 µM (inactive)	> 100 µM (inactive)	> 100 µM (inactive)	> 100 µM (inactive)	> 100 µM (inactive)		> 100 µM (inactive)	> 100 µM (inactive)		
C/C(=C1/CCC/C(=C(/C)c2ccccc2)C1=O)c1ccccc1	64.4 µM (inactive)	45.8 µM (inactive)	25.3 µM (inactive)	31.6	18.3 µM (inactive)	27.5 µM (inactive)	> 100 µM (inactive)	65.6 µM (inactive)	37.2 µM (inactive)	80 µM (inactive)	> 100 µM (inactive)	> 100 µM (inactive)	33.3 µM (inactive)		27.2 µM (inactive)	
COc1ccc(/C(Cl)=C(\c2ccc(OCCN(C)C)cc2)c2ccc(OC(=O)C(C)(C)C)cc2)cc1	15.2 µM (inactive)	13.7 µM (inactive)	13.6 µM (inactive)	10.6	3.01 µM (inactive)	15.7 µM (inactive)	11.1 µM (inactive)	13.9 µM (inactive)	14.8 µM (inactive)	13.2 µM (inactive)	16 µM (inactive)	18.1 µM (inactive)	3.58 µM (inactive)	16.1 µM (inactive)	10.3 µM (inactive)	
NC(=O)N/N=C(\CC1OC(=O)c2ccccc21)c1ccc([N+](=O)[O-])cc1 (stereo not given)	49.1 µM (inactive)	33.8 µM (inactive)	17.5 µM (inactive)	24.5	> 10 µM (inactive)			46.8 µM (inactive)	18.4 µM (inactive)	35.7 µM (inactive)	20.7 µM (inactive)	> 100 µM (inactive)	34 µM (inactive)	22.7 µM (inactive)	39.9 µM (inactive)	82 µM (inactive)
CC(C)N1CCC2(CC1)NNc1ncccc1-n1cccc12	> 100 µM (inactive)	> 100 µM (inactive)	> 100 µM (inactive)	> 10	> 100 µM (inactive)	> 100 µM (inactive)		> 100 µM (inactive)		> 100 µM (inactive)	> 100 µM (inactive)	> 100 µM (inactive)	> 100 µM (inactive)	> 100 µM (inactive)	> 100 µM (inactive)	
CC(C)C(C(=O)N(C)C(Cc1ccccc1)C(=O)N(C)C(C(=O)N(C)C(C(=O)N1CCCC1C(=O)OC(C)(C)C)C(C)C)C(C)C)N(C)C (stereo not given) (ξNMe2Val-[NMeF][NMeV][NMeV]P-OtBu; configuration not given here)	62.5 µM (inactive)	64 µM (inactive)	> 10 µM (inactive)	51.6	31.6 µM (inactive)	94.6 µM (inactive)		35.2 µM (inactive)	51.9 µM (inactive)	43 µM (inactive)	58.3 µM (inactive)	> 100 µM (inactive)	20 µM (inactive)	64.4 µM (inactive)	43.2 µM (inactive)	
